Results: US11230569B2, “Antiplasmodial compounds” (UNIVERSITY OF CENTRAL FLORIDA RESEARCH FOUNDATION, INC., priority 2018, dated 2022)
Where two headings read alike, the source gives them in different places.

How the values were obtained:
HepG2 human hepatocytes = experiment: MTS cytotoxicity assay in HepG2 cells (counter screen, selectivity); assay type: cell-based; details: for Selectivity Index: Hep G2 cell EC50 : P. falciparum EC50, pure compound library hits
Description: (§1) In the pursuit to discover next generation of antimalarials from novel areas of chemical space, a large library of diverse fungi was screened to discover secondary metabolites active against malaria parasite. […] The Cichewicz fungal collection contains tens of thousands of fungal isolates that were secured from diverse habitats and ecological niches across the United States. It is believed that fungal secondary metabolites, which are underexplored for antimalarial drug discovery, provide a unique opportunity to explore medicinally relevant, but untapped chemical space for the discovery of essential malaria therapeutics. Libraries of 750 pure compounds, and of 460 extracts obtained from diverse fungal sources have been screened for their ability to inhibit intraerythrocytic growth of chloroquine-resistant P. falciparum Dd2 using a SYBR Green I-based fluorescence assay. As a counter screen, the cytotoxicity of the top ten extracts in HepG2 cells was evaluated using the MTS ((3-(4,5 dimethylthiazol-2-yl)-5-(3-carboxymethoxyphenyl)-2-(4-sulfophenyl)-2H-tetrazolium, inner salt) cell proliferation assay. This screening has identified potent and selective novel antiplasmodial compounds. These unique pharmacophores from wide areas of chemical space would provide chemical starting points to develop lead compounds for drugs against malaria.
Cross selectivity for human cells was determined using HepG2 human hepatocytes and an MTS (3-(4,5-Dimethylthiazol-2-yl)-5-(3-carboxymethoxyphenyl)-2-(4-sulfophenyl)-2H-tetrazolium) based cytotoxicity assay. After seeding 2,250 cells per well into 384-well microtiter plates, cells were incubated for 24 h. Next, serial dilutions of compounds were added to the seeded plates and incubated for additional 48 h at 37° C., and 5% CO2. Zero percent growth control wells were incubated with 5% Triton X-100 for 5 min prior to MTS addition and incubated for 4 h at identical growth conditions. Absorbance was then read at 490 nm in a Synergy Neo2 multi-mode reader (BioTek, Winsooki, Vt.) and values were normalized based on detergent lysed and no treatment controls.

P. falciparum Dd2 = experiment: SYBR Green I-based fluorescence assay, intraerythrocytic growth inhibition; assay type: cell-based, Plasmodium falciparum
Description: as §1
Ten millimolar compound stocks in DMSO were diluted by ½, ⅕, and/or 1/10 fold dilutions in ultrapure water or RPMI 1640. Varying concentrations of compound were added to culture at a 1% parasitemia and 2% hematocrit in 96-well black plates. Assay conditions maintained maximum DMSO concentrations less than 0.125% per dilution. Positive (baseline 0% growth) controls consisted of Chloroquine at 1 μM final concentration. Following 72 h incubation at 37° C. in 5% CO2, dilution plates were frozen at −80° C. for a minimum of 30 minutes. Dilution plates were allowed to thaw followed by lysis treatment and SYBR Green I incorporation. DNA quantification was determined using a fluorescence reading on a Synergy H4 multimode plate reader set at 485 nm excitation and 530 nm emission as previously reported (Roberts, Iyamu et al. 2016). EC50 was calculated from a dose response curve that was generated from a concentration range of 0-10 μM using GraphPad Prism v5.0.
Different dilutions of the compound/fraction in 1 μl of the culture medium were added to 99 μl of P. falciparum culture at a 1% parasitemia and 2% hematocrit in 96-well plates. Maximum DMSO concentration in the culture never exceeded 0.125%. Chloroquine at 1 μM was used as a positive control to determine the baseline value. Following 72 hours incubation at 37° C., the plates were frozen at −80° C. After thawing, 100 μL of lysis buffer (with SYBR Green I dye 1:10,000) was added to each well and plates were incubated at room temperature for 30 minutes prior to reading.
Culture was maintained following a modified Trager and Jensen protocol.^xxv Multi-drug resistant P. falciparum line Dd2 was grown in RPMI 1640 supplemented with 25 mM HEPES pH 7.4, 26 mM NaHCO3, 2% dextrose, 15 mg/L hypoxanthine, 25 mg/L gentamycin and 0.5% Albumax II in human A+ erythrocytes. Culture was maintained at 4% hematocrit at 37° C. with 5% CO2.
Plates were subsequently frozen at −80° C. to facilitate lysis. After thawing, plates were incubated with 1×SYBR Green I in lysis buffer (20 mM Tris-HCl, 0.08% saponin, 5 mM EDTA, 0.8% Triton X-100) for 45-60 min at room temperature. Fluorescence was measured at an excitation wavelength 485 nm, emission 530 nm in a Synergy Neo2 multi-mode reader (BioTek, Winsooki, Vt.). RFUs were normalized based on chloroquine treated and no treatment controls. For all compounds listed, serial dilutions were prepared in RPMI with final assay conditions of 0.2% DMSO or below.

Histone H4 = experiment: Western blot of parasite extracts with anti-acetyl histone 4 antibody; assay type: cell-based, Plasmodium; details: mixed stage culture, EC90 concentrations, 4 hrs
Protocol: Mixed stage culture was incubated with EC90 concentrations of 130134 Analog 2 and PF1070A for 4 hrs and cell free parasite extracts were subjected to western blot analysis using anti-acetyl histone 4 antibody.
Of the hits found, several have known targets in other model systems, allowing us to expedite target analysis. One such compound is Chlamydocin, a known Class I HDAC inhibitor. Western blot analysis of Plasmodium extracts confirms that analogs of this compound causes hyperacetylation of histone 4 and is suspected to target Plasmodium HDAC1.

PfHDAC1 = PfHDAC1 (Plasmodium falciparum, UniProt Q7K6A1); experiment: PfHDAC1 assay; assay type: biochemical
Description: (§2) Culture followed until 54 HPI. Scale bar represents 1 micron. FIG. 10(B) is a western blot showing acetylation following treatment at 6 HPI with 137LJ57K, initial impure extract of 137LJ57K1.
FIGS. 17-20 provide multiple versions of cyclic tetrapeptides along with their EC50s for various noted assays including Pf, Hep G2 and PfHDAC1 assays

trophozoites = experiment: IFA and western blot for acetylation after treatment at 6 HPI; assay type: cell-based; details: culture followed until 54 HPI
Description: Culture followed until 54 HPI. Scale bar represents 1 micron.
as §2

P. falciparum = details: literature; cited from earlier work
[1] = Plasmodium falciparum, Top hits from pure compound library, chloroquine-resistant P. falciparum Dd2, 72 h, read-out: EC50
[2] = Plasmodium falciparum, DD2, 72 h

Sequence of PfHDAC1 (Q7K6A1 entry or part of it): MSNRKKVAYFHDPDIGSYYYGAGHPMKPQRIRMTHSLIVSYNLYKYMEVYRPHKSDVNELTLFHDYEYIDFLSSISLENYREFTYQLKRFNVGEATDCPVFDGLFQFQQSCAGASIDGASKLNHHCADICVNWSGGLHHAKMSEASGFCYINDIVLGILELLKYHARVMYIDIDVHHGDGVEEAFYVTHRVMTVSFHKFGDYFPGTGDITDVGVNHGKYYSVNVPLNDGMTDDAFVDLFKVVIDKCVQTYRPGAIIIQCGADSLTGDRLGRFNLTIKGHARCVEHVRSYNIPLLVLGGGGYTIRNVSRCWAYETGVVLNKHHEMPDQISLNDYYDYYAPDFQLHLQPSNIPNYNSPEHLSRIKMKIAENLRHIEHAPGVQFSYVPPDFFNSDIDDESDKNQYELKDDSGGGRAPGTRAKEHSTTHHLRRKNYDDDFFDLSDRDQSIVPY

Row | Molecule | Selectivity Index (HepG2 human hepatocytes) | EC50 (P. falciparum Dd2; [2]) [nM] | also measured
1 | CC(C)[C@H]1CC[C@@](O)(COC(=O)/C(=C/[C@@H]2[C@@H](C(C)C)CCC3(O)COC(=O)[C@@H]23)CO)[C@H]2C(=O)OCC(C(=O)O)=C[C@H]12 (some centres unmarked) [Compound 130131] | >54 |  | EC50 (P. falciparum Dd2; [1]): 367 nM
2 | CC1NC(=O)C(CCCCCC(=O)C2CO2)NC(=O)C2CCCN2C(=O)C(Cc2ccccc2)NC1=O (centres unmarked) [130134 Analog 1, 1-Alanine-chlamydocin] | 3 | 9 | hyperacetylation of Histone H4 (Histone H4): causes hyperacetylation of Histone H4
3 | C[C@@]12OC(=O)[C@]1(C(O)[C@@H]1C=CCCC1)NC(=O)[C@@H]2CCCl (some centres unmarked) [Compound 120066] | 290.28 | 47 | 
4 | CC(C)C1CCC(O)(CCl)C2C(=O)OCC(C(=O)O)=CC12 (centres unmarked) [Compound 130130] | 3 | 469 | 
5 | C=C1[C@@H](O)[C@@H]2O[C@]3(CC[C@H](/C=C/[C@@H](C)[C@@H]4CC(C)=C[C@@]5(O[C@H](C[C@@](C)(O)C(=O)O)CC[C@H]5O)O4)O3)CC[C@H]2O[C@@H]1[C@@H](O)C[C@H](C)[C@H]1O[C@@]2(CCCCO2)CC[C@H]1C [Compound 120033] | >77 | 55 | 
6 | CC[C@H]1/C=C/C=C/C[C@@H](C)[C@H](O)[C@@](C)(O)C(=O)[C@@H](C)[C@H](O)[C@@H](C)C(=O)[C@@H](C)[C@H](O)[C@@H](C)/C=C/C(=O)O[C@@H]2[C@H](C)[C@H](CC1)O[C@]1(CC[C@H](C)[C@H](C[C@@H](C)O)O1)[C@H]2C [Compound 120086] | 14.62 |  | EC50 (P. falciparum Dd2; [1]): 361 nM
7 | CCC(C)C1NC(=O)C(Cc2ccccc2)NC(=O)C(CCCCCC(=O)C2CO2)NC(=O)C2CCCCN2C1=O (centres unmarked) [Compound 137LJ57K1] |  |  | EC50 (PfHDAC1): < 0.2 nM; EC50 (HepG2 human hepatocytes; Homo sapiens, HepG2): 13100 nM; EC50 (P. falciparum Dd2; Plasmodium falciparum, DD2, read-out: Dd2 EC50 (nM)): 88 nM; hyperacetylation (trophozoites): hyperacetylation during trophozoite stage
8 | CCC(C)C1NC(=O)C(Cc2ccccc2)NC(=O)C(CCCCCC(=O)C2CO2)NC(=O)C2CCCCN2C1=O (centres unmarked) [130134 Analog 2, PF1070A] | >23 | 37 | selectivity (in words) (HepG2 human hepatocytes): selective; hyperacetylation of Histone H4 (Histone H4): causes hyperacetylation of Histone H4; EC50 (P. falciparum Dd2; Plasmodium falciparum, DD2, read-out: EC50 against multidrug resistant malaria): 37 nM
9 | CC(C)[C@H]1CC[C@@](O)(CCl)[C@H]2C(=O)OCC(C(=O)O)=C[C@H]12 [Compound 130129] | 3 | 361 | 
10 | O=C(c1cc(Cl)c(Cl)[nH]1)c1c(O)cccc1O [Compound 130115] | >32 | 491 | 
11 | C/C1=C\[C@H](C)C[C@H](C)CC(=O)C[C@H](c2ccc(O)cc2)NC(=O)[C@@H](Cc2c(Br)[nH]c3ccccc23)N(C)C(=O)[C@H](C)NC(=O)[C@@H](C)C1 [Compound 120030] | >92.25 | 271 | 
12 | Chlamydocin [Compound 130134] | 7 |  | EC50 (P. falciparum Dd2; Top hits from pure compound library, chloroquine-resistant P. falciparum Dd2, 72 h, read-out: EC50): 24.7 nM
13 | Oc1cc(O)c2c(c1)O[C@H](c1ccc(O)c(O)c1)[C@@H](O)C2 [Compound 120051] | 11.44 |  | EC50 (P. falciparum Dd2; [1]): 47 nM
14 | COC1=CC(c2ccc[nH]2)=N/C1=C/NCC(C)C [Compound 120036] | 57.31 |  | EC50 (P. falciparum Dd2; [1]): 180 nM
15 | CC[C@H](C)[C@@H](C(=O)O[C@@H](CC(C)C)C(=O)N[C@@H](CC(C)C)C(=O)N[C@@H](C)/C=C/C(=O)N1C(=O)C=C(OC)[C@@H]1C)N(C)C [gallinamide A] |  |  | IC50 (P. falciparum): 8400 nM
